Measurements published in patent US20250223259A1, “PROTEASE INHIBITORS FOR TREATING OR PREVENTING CORONAVIRUS INFECTION” (Merck Sharp & Dohme LLC, priority 2022, published 2025).

The compounds below were run against SARS2 coronavirus 3CL protease (Severe acute respiratory syndrome coronavirus 2 (2019-nCoV) (SARS-CoV-2), UniProt P0DTD1) (assay: SARS2 Coronavirus 3CL Protease Assay (FRET)). Conditions: SARS2 3CLPro FRET assay; 5 nM enzyme, 30 min pre-incubation with compound, 15 uM peptide substrate, 4 h room temperature.
Assay type: biochemical
Work on `CNC(=O)C(=O)[C@H](CCC(C)(F)F)NC(=O)[C@@H]1[C@@H]2CC[C@@H](C2)CN1C(=O)[C@@H](NC(=O)OC)C(C)(C)C` [Example 89, methyl ((S)-1-((1R,2S,5S)-2-(((S)-6,6-difluoro-1-(methylamino)-1,2-dioxoheptan-3-yl)carbamoyl)-3-azabicyclo[3.2.1]octan-3-yl)-3,3-dimethyl-1-oxobutan-2-yl)carbamate] yielded an IC50 of 0.013 µM. For `CNC(=O)C(=O)[C@H](CCC(C)(F)F)NC(=O)[C@@H]1CC(F)(F)[C@@H](C)CN1C(=O)[C@@H](NC(=O)OC)C(C)(C)C` [Example 91, methyl ((S)-1-((2S,5S)-2-(((S)-6,6-difluoro-1-(methylamino)-1,2-dioxoheptan-3-yl)carbamoyl)-4,4-difluoro-5-methylpiperidin-1-yl)-3,3-dimethyl-1-oxobutan-2-yl)carbamate], the IC50 was 0.019 µM. In the case of `CNC(=O)C(=O)[C@H](CCC(C)(F)F)NC(=O)[C@@H]1[C@@H]2[C@H](CN1C(=O)[C@@H](NC(=O)OC)C(C)(C)C)CC2(F)F` [Example 92, methyl ((S)-1-((1S,2S,5R)-2-(((S)-6,6-difluoro-1-(methylamino)-1,2-dioxoheptan-3-yl)carbamoyl)-7,7-difluoro-3-azabicyclo[3.2.0]heptan-3-yl)-3,3-dimethyl-1-oxobutan-2-yl)carbamate], the IC50 is reported as 0.029 µM. In the case of `COC(=O)N[C@H](C(=O)N1CC[C@]2(C[C@H]1C(=O)N[C@@H](CCC(C)(F)F)C(=O)C(=O)NC1CC1)CC2(F)F)C(C)(C)C` [Example 94, methyl ((S)-1-((3S,5S)-5-(((S)-1-(cyclopropylamino)-6,6-difluoro-1,2-dioxoheptan-3-yl)carbamoyl)-1,1-difluoro-6-azaspiro[2.5]octan-6-yl)-3,3-dimethyl-1-oxobutan-2-yl)carbamate], the IC50 is reported as 0.009 µM. `COC(=O)N[C@H](C(=O)N1CC[C@@H](C)C[C@H]1C(=O)N[C@@H](CCC(C)(F)F)C(=O)C(=O)NC1CC1)C(C)(C)C` [Example 96, methyl ((S)-1-((2S,4R)-2-(((S)-1-(cyclopropylamino)-6,6-difluoro-1,2-dioxoheptan-3-yl)carbamoyl)-4-methylpiperidin-1-yl)-3,3-dimethyl-1-oxobutan-2-yl)carbamate] was tested, and the IC50 was 0.015 µM. In the case of `CCNC(=O)C(=O)[C@H](CCC(C)(F)F)NC(=O)[C@@H]1[C@H]2CCC[C@H]2CN1C(=O)[C@@H](NC(=O)OC)C(C)(C)C` [Example 101, methyl ((S)-1-((1S,3aR,6aS)-1-(((S)-1-(ethylamino)-6,6-difluoro-1,2-dioxoheptan-3-yl)carbamoyl)hexahydrocyclopenta[c]pyrrol-2(1H)-yl)-3,3-dimethyl-1-oxobutan-2-yl)carbamate], the IC50 is reported as 0.022 µM. In the case of `COCCNC(=O)C(=O)[C@H](CCC(C)(F)F)NC(=O)[C@@H]1[C@H]2CCC[C@H]2CN1C(=O)[C@@H](NC(=O)OC)C(C)(C)C` [Example 102, methyl ((S)-1-((1S,3aR,6aS)-1-(((S)-6,6-difluoro-1-((2-methoxyethyl)amino)-1,2-dioxoheptan-3-yl)carbamoyl)hexahydrocyclopenta[c]pyrrol-2(1H)-yl)-3,3-dimethyl-1-oxobutan-2-yl)carbamate], the IC50 is reported as 0.061 µM. `COC(=O)N[C@H](C(=O)N1CC(F)(F)CC[C@H]1C(=O)N[C@@H](CCC(C)(F)F)C(=O)C(=O)NC1CC1)C(C)(C)C` [Example 104, methyl ((S)-1-((S)-2-(((S)-1-(cyclopropylamino)-6,6-difluoro-1,2-dioxoheptan-3-yl)carbamoyl)-5,5-difluoropiperidin-1-yl)-3,3-dimethyl-1-oxobutan-2-yl)carbamate] gave an IC50 of 0.74 µM. `COC(=O)N[C@H](C(=O)N1C[C@H]2[C@@H]([C@H]1C(=O)N[C@@H](CCC(C)(F)F)C(=O)C(=O)NC1CC1)C2(F)F)C(C)(C)C` [Example 111, methyl ((S)-1-((1S,2S,5R)-2-(((S)-1-(cyclopropylamino)-6,6-difluoro-1,2-dioxoheptan-3-yl)carbamoyl)-6,6-difluoro-3-azabicyclo[3.1.0]hexan-3-yl)-3,3-dimethyl-1-oxobutan-2-yl)carbamate] was tested, and the IC50 was 0.088 µM. Compound `COC(=O)N[C@H](C(=O)N1C[C@H](OC(F)F)C[C@H]1C(=O)N[C@@H](CCC(C)(F)F)C(=O)C(=O)NC1CC1)C(C)(C)C` [Example 113, methyl ((S)-1-((2S,4R)-2-(((S)-1-(cyclopropylamino)-6,6-difluoro-1,2-dioxoheptan-3-yl)carbamoyl)-4-(difluoromethoxy)pyrrolidin-1-yl)-3,3-dimethyl-1-oxobutan-2-yl)carbamate] has an IC50 of 0.046 µM. With `CNC(=O)C(=O)[C@H](CCC(C)(F)F)NC(=O)[C@@H]1[C@H]2CCC[C@H]2CN1C(=O)[C@@H](NC(=O)OC)C12CC(C(F)(F)F)(C1)C2` [Example 114, methyl ((S)-2-((1S,3aR,6aS)-1-(((S)-6,6-difluoro-1-(methylamino)-1,2-dioxoheptan-3-yl)carbamoyl)hexahydrocyclopenta[c]pyrrol-2(1H)-yl)-2-oxo-1-(3-(trifluoromethyl)bicyclo[1.1 1]pentan-1-yl)ethyl)carbamate] the IC50 was 0.027 µM. In the case of `CNC(=O)C(=O)[C@H](CCC(C)(F)F)NC(=O)[C@@H]1[C@H]2CCC[C@H]2CN1C(=O)[C@@H](NC(=O)OC)C(C)(C)O` [Example 117, methyl ((S)-1-((1S,3aR,6aS)-1-(((S)-6,6-difluoro-1-(methylamino)-1,2-dioxoheptan-3-yl)carbamoyl)hexahydrocyclopenta[c]pyrrol-2(1H)-yl)-3-hydroxy-3-methyl-1-oxobutan-2-yl)carbamate], the IC50 is reported as 0.014 µM. For `COC(=O)N[C@H](C(=O)N1C[C@@H]2CCC[C@@H]2[C@H]1C(=O)N[C@@H](CCC(C)(F)F)C(=O)C(=O)NC1CC1)[C@@H](C)OC` [Example 118, methyl ((2S,3R)-1-((1S,3aR,6aS)-1-(((S)-1-(cyclopropylamino)-6,6-difluoro-1,2-dioxoheptan-3-yl)carbamoyl)hexahydrocyclopenta[c]pyrrol-2(1H)-yl)-3-methoxy-1-oxobutan-2-yl)carbamate], the IC50 was 0.014 µM. In the case of `COC(=O)N[C@H](C(=O)N1C[C@@H]2CCC[C@@H]2[C@H]1C(=O)N[C@@H](CCC(C)(F)F)C(=O)C(=O)NCC(F)(F)F)C(C)(C)C` [Example 119, methyl ((S)-1-((1S,3aR,6aS)-1-(((S)-6,6-difluoro-1,2-dioxo-1-((2,2,2-trifluoroethyl)amino)heptan-3-yl)carbamoyl)hexahydrocyclopenta[c]pyrrol-2(1H)-yl)-3,3-dimethyl-1-oxobutan-2-yl)carbamate], the IC50 is reported as 0.077 µM. `CCOC(=O)N[C@H](C(=O)N1C[C@@H]2CCC[C@@H]2[C@H]1C(=O)N[C@@H](CCC(C)(F)F)C(=O)C(=O)NC)C(C)(C)C` [Example 120, ethyl ((S)-1-((1S,3aR,6aS)-1-(((S)-6,6-difluoro-1-(methylamino)-1,2-dioxoheptan-3-yl)carbamoyl)hexahydrocyclopenta[c]pyrrol-2(1H)-yl)-3,3-dimethyl-1-oxobutan-2-yl)carbamate] was tested, and the IC50 was 0.021 µM. Work on `CNC(=O)C(=O)[C@H](CCC(C)(F)F)NC(=O)[C@@H]1[C@H]2CCC[C@H]2CN1C(=O)[C@@H](NC(=O)OCC(F)F)C(C)(C)C` [Example 121, 2,2-difluoroethyl ((S)-1-((1S,3aR,6aS)-1-(((S)-6,6-difluoro-1-(methylamino)-1,2-dioxoheptan-3-yl)carbamoyl)hexahydrocyclopenta[c]pyrrol-2(1H)-yl)-3,3-dimethyl-1-oxobutan-2-yl)carbamate] yielded an IC50 of 0.015 µM.
